The values below come from patent US10428387B2, “Treating chronic myelogenous leukemia (CML)” (priority 2014, dated 2019).

Structures can show the parent of a compound that is named as a salt.

The test system of test [1] is RAF/MEK/ERK signaling (phosphorylated ERK1/2). In words: Immunoblot analysis of RAF/MEK/ERK signaling in K562 cell lines. It is filed as cell-based, human. (Immunoblotting shows a protein as a band on a membrane.)
Protocol: Cells were harvested and lysed with RIPA buffer (10×, 200 mM HEPES pH 6.8, 1400 mM NaCl, 25 mM MgCl2, 25 mM CaCl2, 10% NP40, and 5% sodium deoxycholate) plus phosphatase (Sigma) and protease inhibitors (Roche). […] The PKCη antibody (Santa Cruz Technology; C-15) was diluted in 5% skim milk at 1:150. The β-actin antibody (Sigma; AC-74) diluted in 5% BSA at 1:5000. Blots were developed with Pico/Femato super signal (Sigma) and visualized using autoradiography or a Bio-Rad ChemiDoc MP Imaging System.
The subject of test [2] is phosphorylated ERK1/2 in CML progenitor and stem cells. In words: Intracellular phosphorylated-ERK1/2 analysis by FACS. It is filed as cell-based, mouse. As to conditions: 5 μM IM or 10 nM trametinib, 3 hours. The procedure:
For intracellular phosphorylated-ERK1/2 analysis, bone marrow cells isolated from leukemic mice were treated with 5 μM IM or 10 nM trametinib for 3 hours, fixed in 4% paraformaldehyde (Electron Microscopy Sciences) for 10 min at 37° C., washed twice with wash buffer (0.05% BSA in 1×PBS), spun down, and resuspended in 100 μl wash buffer. Ice-cold methanol (900 μl) was added to the cells while gently vortexing to reach a final 90% for permeabilization. Samples were incubated on ice for 30 min, washed twice, and resuspended in 100 μl wash buffer. IgG control antibody (Cell signaling) was added (at 1:100 dilution) for 10 min at room temperature for blocking, followed by addition of 2 μl conjugated IgG control (Pacific Blue-conjugated IgG^XP Rabbit mAb, Cell Signaling) or phospho-ERK antibody (Pacific Blue-conjugated P-p44/42(T202/Y204)^XP Rabbit mAb, Cell Signaling). Samples were gently mixed and incubated at room temperature for 1 hour. Thirty minutes after the start of the incubation, a cocktail of primary antibodies for cell surface markers (described above) was added, incubated for a further 30 min, washed once with PBS, and incubated with the secondary antibody for 20 min on ice. Samples were then washed once with wash buffer prior to FACS analysis.
A general note: Flow cytometry measures light scatter and fluorescence of single cells or particles in a stream.

The test system of test [3] is mice with CML-like disease (Prkch KD). In words: Prkch knockdown mice with CML-like disease. As to conditions: IM from day 14. The class given is in vivo, mouse.
Protocol: Mice with CML-like disease were generated as previously described (22). Briefly, wild-type male C57BL/6 mice 6-8 weeks of age (Jackson Laboratory) were tail-vein injected with 5-fluorouracil (200 mg/kg; Sigma) for 4 days to enrich for slow-cycling hematopoietic stem cells. At day 5, bone marrow cells were harvested and pre-incubated overnight in the presence of IL-3, IL-6 and SCF (all from PeproTech) to increase infection efficiency. At days 6 and 7, bone marrow cells were infected with a BCR-ABL retrovirus by co-sedimentation method at 3,000 rpm for 90 min at room temperature. Four hours after the second round of retroviral infection, 0.5×10^6 bone marrow cells were injected into the tail vein of syngeneic recipient mice that had been lethally irradiated (twice at 550 R). Mice were randomly allocated to each group after bone marrow transplantation.
For another test, the system named is IMSG KD K562 cells. The following applies: representative IMSG KD K562 cell lines expressing PRKCH shRNA.
In the next test the test system is K562R cells. As to conditions: K562R over-express the Src family kinase LYN; cited from earlier work.

`Cc1ccc(NC(=O)c2ccc(CN3CCN(C)CC3)cc2)cc1Nc1nccc(-c2cccnc2)n1` [IM, imatinib mesylate]: the “phosphorylated MEK and ERK1/2 after IM treatment” value in test [1] (K562/PRKCH cells) is listed as “maintained high levels”. Also, the “phosphorylation of ERK1/2 following IM treatment” value in test [1] (all IMSG KD K562 cell lines) was “sustained levels”. The “phosphorylated-ERK1/2 levels after IM treatment” value in test [1] (control K562 cells) is “substantial decrease”. The “phosphorylated ERK1/2 in CML progenitor cells” value in test [2] was “reduced levels of phosphorylated ERK1/2”. In addition, in test [3], the “survival of IM-treated mice after knockdown of Prkch” value is listed as “markedly increased survival”. In the test on IMSG KD K562 cells, the “IM resistance after knockdown of PRKCH” value is “abrogated the IM resistance”. Moreover, in the test with K562R cells, the “sensitivity of K562R cells” value was “resistant”.
